Assay results from article PMC10477347, “O-methyltransferase-like enzyme catalyzed diazo installation in polyketide biosynthesis” (Nature Communications, 2023).
Blank lines part the entries; values can stand above or below the compound they belong to.

How the values were obtained:
[1] = molecular target: T1, AlpJ (Streptomyces ambofaciens, UniProt Q6VMI5); experiment: HPLC of products […] and […] from one-pot reaction with AlpK; format: biochemical; details: NADH, FAD, pH 7.5, 30 °C
T1 construct: pET28a, Ni-NTA purified from E. coli BL21(DE3); gene amplified from kinamycin BAC 3C2
T1 sequence (Q6VMI5 1-232): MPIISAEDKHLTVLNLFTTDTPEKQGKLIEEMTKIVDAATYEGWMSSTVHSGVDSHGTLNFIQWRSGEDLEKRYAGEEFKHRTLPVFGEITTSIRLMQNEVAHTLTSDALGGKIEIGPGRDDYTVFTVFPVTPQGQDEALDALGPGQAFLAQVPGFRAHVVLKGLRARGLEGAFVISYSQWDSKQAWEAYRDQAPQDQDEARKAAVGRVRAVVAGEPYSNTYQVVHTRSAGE

[2] = molecular target: T2, AlpH (Streptomyces ambofaciens, UniProt Q6VMJ4); experiment: surface plasmon resonance (Biacore 8K, AlpH immobilized on CM5); format: binding
T2 construct: N-terminal His6-tagged, pET28a, E. coli BL21(DE3); homodimer in the apo crystal; gene amplified from kinamycin BAC 3C2
Excerpt: surface plasmon resonance (Biacore 8K, AlpH immobilized on CM5) on AlpH | Surface plasmon resonance analysis of AlpH and gluN2H3 also identified a specific interaction between them

[3] = molecular target: AlpH, O-methyltransferase-like protein from the kinamycin biosynthetic gene cluster; experiment: crystal structure; apo-AlpH, hanging drop vapor diffusion at 16 °C; protein in 20 mM Tris-HCl pH 7.5, 100 mM NaCl, 1 mM DTT, 1 mM EDTA; reservoir 0.03 M citric acid, 0.07 M Bis-Tris propane pH 7.6, 20% PEG3350; molecular replacement, 1.87 Å

T2 sequence (Q6VMJ4 entry or part of it): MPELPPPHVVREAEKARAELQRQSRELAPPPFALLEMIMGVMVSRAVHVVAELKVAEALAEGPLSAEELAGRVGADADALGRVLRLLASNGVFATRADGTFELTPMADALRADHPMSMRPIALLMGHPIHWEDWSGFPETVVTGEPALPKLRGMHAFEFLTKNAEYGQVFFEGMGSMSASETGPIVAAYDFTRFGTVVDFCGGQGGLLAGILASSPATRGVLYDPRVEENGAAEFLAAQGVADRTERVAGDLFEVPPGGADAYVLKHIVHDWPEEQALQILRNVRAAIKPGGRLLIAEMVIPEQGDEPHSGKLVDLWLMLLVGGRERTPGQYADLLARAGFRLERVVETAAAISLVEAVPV

Compound: Cc1cc(O)c2c3c(c(O)cc2c1)C(=O)c1c(O)cccc1C3=O [DHR]
HPLC of products 1 and 6 from one-pot reaction with AlpK [1]: prepared in situ by incubating AlpJ and AlpK with DHR and NADH

Compound: NNC(=O)CC[C@H](N)C(=O)O [gluN2H3]
Kd [2]: 114 nM

stoichiometry N [3]: 2
Compound: AlpH, O-methyltransferase-like protein from the kinamycin biosynthetic gene cluster (enzyme)
